Test results: patent US5459156A, “Imidazolyl-substituted phenylacetic acid prolinamides” (Bayer Aktiengesellschaft, priority 1993, dated 1995)

What was measured:
[1] = tested on: smooth muscle cells; assay: Inhibition of the proliferation of smooth muscle cells (3H-thymidine incorporation); assay type: cell-based, rats; conditions: rat aorta smooth muscle cells; inhibition of thymidine incorporation produced by 10% FCS; Table B
Protocol: Investigation of the Inhibition of the Proliferation of Smooth Muscle Cells by the Compounds According to the Invention
To determine the antiprofilerative action of the compounds, smooth muscle cells are used which are obtained from aortas of rats by the media explant technique [R. Ross, J. Cell. Biol. 50, 172, 1971]. The cells are inoculated in suitable culture dishes, as a rule 96-hole plates, and cultured in 5% CO2 at 37° C. for 2-3 days in medium 199 containing 7.5% FCS and 7.5% NCS, 2 mM L-glutamine and 15 mM HEPES, pH 7.4. The cells are then synchronized by withdrawal of serum for 2-3 days and then stimulated into growth with serum or other factors. Test compounds are simultaneously added. After 16-20 hours, 1 μCi ^3 H-thymidine is added and after a further 4 hours the incorporation of this substance into the TCA-precipitatable DNA of the cells is determined. To determine the IC50 values, the active compound concentration is determined which, on sequential dilution of the active compound, causes semi-maximal inhibition of the thymidine incorporation produced by 10% FCS.

[2] = target: T1, Angiotensin II Receptor (Bos taurus, UniProt P25104); assay: Inhibition of the specific binding of radioactive angiotensin II to the angiotensin II receptor in membrane fractions of the adrenal gland cortex (bovine); conditions: bovine adrenal gland cortex membranes; 3H-angiotensin II (3-5 nM); 60 min, room temperature; Table A
T1 construct: partially purified membrane fractions of bovine AGC using radioactive angiotensin II; from tissue; host or cells: bovine adrenal gland cortex, partially purified membrane fractions
T1 sequence (P25104 1-359): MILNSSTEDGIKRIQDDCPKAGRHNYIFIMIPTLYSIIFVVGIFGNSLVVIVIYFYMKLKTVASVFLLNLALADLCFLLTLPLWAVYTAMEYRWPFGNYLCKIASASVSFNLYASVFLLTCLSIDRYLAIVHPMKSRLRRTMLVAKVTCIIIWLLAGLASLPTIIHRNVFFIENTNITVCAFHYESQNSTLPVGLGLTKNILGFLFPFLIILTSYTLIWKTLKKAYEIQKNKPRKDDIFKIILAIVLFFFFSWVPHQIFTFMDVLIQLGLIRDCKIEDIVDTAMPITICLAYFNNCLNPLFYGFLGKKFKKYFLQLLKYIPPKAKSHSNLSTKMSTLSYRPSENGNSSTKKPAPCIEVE
Source text: Interaction of the Compounds According to the Invention with the Angiotensin II Receptor in Membrane Fractions of the Adrenal Gland Cortex (Bovine)
Bovine adrenal gland cortices (AGC), which have been freshly removed and carefully freed from gland medulla, are comminuted in sucrose solution (0.32M) with the aid of an Ultra-Turrax (Janke & Kunkel, Staufen i.B.) to give a coarse membrane homogenate and partially purified in two centrifugation steps to give membrane fractions. The receptor binding investigations are carried out on partially purified membrane fractions of bovine AGC using radioactive angiotensin II in an assay volume of 0.25 ml, which specifically contains the partially purified membranes (50-80 μg), ^3 H-angiotensin II (3-5 nM), test buffer solution (50 mM Tris, pH 7.2), 5 mM MgCl2 and the substances to be investigated. After an incubation time of 60 min at room temperature, the unbound radioactivity of the samples is separated by means of moistened glass fibre filters (Whatman GF/C) and the bound radioactivity is measured spectrophotometrically in a scintillation cocktail after washing the protein with ice-cold buffer solution (50 mM Tris/HCl, pH 7.4, 5% PEG 6000). […]

IC50 [2] [nM] | SMILES | IC50 [1] [nM]
 | CCCCc1nc(Cl)c(CO)n1Cc1ccc(C(C(=O)N2CCC[C@H]2C(=O)N[C@H](CO)c2ccccc2)C2CCCC2)cc1 (stereo partly drawn) [Example 9, 2-[4-(2-Butyl-4-chloro-5-hydroxymethyl-imidazol-1-yl-methyl)phenyl]-2-cyclopentylacetic acid (L-prolinephenylglycinolamido) amide] | 860
580 | CCCCc1nc(Cl)c(C(=O)O)n1Cc1ccc(C(C(=O)N2CCC[C@H]2C(N)=O)C2CCCC2)cc1 (stereo partly drawn) [Example 7, 2-[4-(2-Butyl-4-chloro-5-carboxy-imidazol-1-yl-methyl)-phenyl]-2-cyclopentylacetic acid (L-prolinamido) amide] | 
290 | CCCCc1nc(Cl)c(C(=O)O)n1Cc1ccc(C(C(=O)N2CCC[C@H]2C(=O)OCc2ccccc2)C2CCCC2)cc1 (stereo partly shown) [Example 12] | 
 | CCCCc1nc(Cl)c(CO)n1Cc1ccc(C(C(=O)N2CCC[C@H]2C(=O)OC(C)(C)C)C2CCCC2)cc1 (single isomer, unassigned) [Example 14] | 450
